Source: ChEMBL document CHEMBL5465560, “Selectivity Literature for EUbOPEN Chemogenomic Library” (2024)

Columns and labels:
[1] = target: Dual specificity tyrosine-phosphorylation-regulated kinase 1A (Homo sapiens, UniProt Q13627); test: Selectivity interaction (KinomeScan (DiscoverX)) EUB0000045b DYRK1A
[2] = target: Cyclin-dependent kinase 5/CDK5 activator 1 (Homo sapiens) (UniProt Q00535+Q15078); test: Selectivity interaction (Kinase panel (Z-LYTE Assay)) EUB0001632a CDK5; format: protein-complex assay; conditions: at 10 µM
Chain of Cyclin-dependent kinase 5/CDK5 activator 1 (Homo sapiens) (Q00535 whole entry): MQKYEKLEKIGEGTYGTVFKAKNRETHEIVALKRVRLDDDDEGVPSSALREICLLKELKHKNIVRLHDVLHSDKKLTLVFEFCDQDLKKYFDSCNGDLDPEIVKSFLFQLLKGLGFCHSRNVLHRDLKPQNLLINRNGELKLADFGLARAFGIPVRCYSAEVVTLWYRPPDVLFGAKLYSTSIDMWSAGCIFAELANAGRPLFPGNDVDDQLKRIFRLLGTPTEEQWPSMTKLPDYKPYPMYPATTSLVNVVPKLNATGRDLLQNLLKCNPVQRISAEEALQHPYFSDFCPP
Chain of Cyclin-dependent kinase 5/CDK5 activator 1 (Homo sapiens) (Q15078 99-307 partner limits assumed): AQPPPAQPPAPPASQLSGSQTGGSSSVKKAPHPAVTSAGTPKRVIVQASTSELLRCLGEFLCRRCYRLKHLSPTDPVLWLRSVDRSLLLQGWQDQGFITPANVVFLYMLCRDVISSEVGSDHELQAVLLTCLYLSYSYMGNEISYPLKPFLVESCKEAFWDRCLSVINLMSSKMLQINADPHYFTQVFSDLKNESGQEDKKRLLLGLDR

[3] = target: T1, TGF-beta receptor type-1 (Homo sapiens) (UniProt P36897); test: Selectivity interaction (LanthaScreen Eu Kinase Binding Assay) EUB0001632a TGFBR1; conditions: at 10 µM
T1 sequence (whole entry): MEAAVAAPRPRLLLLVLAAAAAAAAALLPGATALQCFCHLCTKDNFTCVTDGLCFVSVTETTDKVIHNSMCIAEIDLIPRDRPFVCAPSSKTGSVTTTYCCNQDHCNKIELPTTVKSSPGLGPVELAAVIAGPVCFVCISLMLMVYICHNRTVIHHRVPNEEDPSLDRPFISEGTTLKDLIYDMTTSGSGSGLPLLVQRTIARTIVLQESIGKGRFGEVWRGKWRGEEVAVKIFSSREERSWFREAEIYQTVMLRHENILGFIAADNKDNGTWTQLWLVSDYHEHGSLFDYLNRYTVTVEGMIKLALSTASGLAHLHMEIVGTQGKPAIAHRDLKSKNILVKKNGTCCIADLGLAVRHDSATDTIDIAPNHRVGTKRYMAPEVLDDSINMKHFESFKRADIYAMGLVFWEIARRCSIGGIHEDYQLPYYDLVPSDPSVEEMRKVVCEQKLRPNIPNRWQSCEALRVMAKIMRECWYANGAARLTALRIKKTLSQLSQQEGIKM

[4] = target: Macrophage colony-stimulating factor 1 receptor (Homo sapiens) (UniProt P07333); test: Selectivity interaction (Millipore kinase profiler) EUB0000124b CSF1R; conditions: at 10 µM
Chain of Macrophage colony-stimulating factor 1 receptor (Homo sapiens) (P07333 whole entry): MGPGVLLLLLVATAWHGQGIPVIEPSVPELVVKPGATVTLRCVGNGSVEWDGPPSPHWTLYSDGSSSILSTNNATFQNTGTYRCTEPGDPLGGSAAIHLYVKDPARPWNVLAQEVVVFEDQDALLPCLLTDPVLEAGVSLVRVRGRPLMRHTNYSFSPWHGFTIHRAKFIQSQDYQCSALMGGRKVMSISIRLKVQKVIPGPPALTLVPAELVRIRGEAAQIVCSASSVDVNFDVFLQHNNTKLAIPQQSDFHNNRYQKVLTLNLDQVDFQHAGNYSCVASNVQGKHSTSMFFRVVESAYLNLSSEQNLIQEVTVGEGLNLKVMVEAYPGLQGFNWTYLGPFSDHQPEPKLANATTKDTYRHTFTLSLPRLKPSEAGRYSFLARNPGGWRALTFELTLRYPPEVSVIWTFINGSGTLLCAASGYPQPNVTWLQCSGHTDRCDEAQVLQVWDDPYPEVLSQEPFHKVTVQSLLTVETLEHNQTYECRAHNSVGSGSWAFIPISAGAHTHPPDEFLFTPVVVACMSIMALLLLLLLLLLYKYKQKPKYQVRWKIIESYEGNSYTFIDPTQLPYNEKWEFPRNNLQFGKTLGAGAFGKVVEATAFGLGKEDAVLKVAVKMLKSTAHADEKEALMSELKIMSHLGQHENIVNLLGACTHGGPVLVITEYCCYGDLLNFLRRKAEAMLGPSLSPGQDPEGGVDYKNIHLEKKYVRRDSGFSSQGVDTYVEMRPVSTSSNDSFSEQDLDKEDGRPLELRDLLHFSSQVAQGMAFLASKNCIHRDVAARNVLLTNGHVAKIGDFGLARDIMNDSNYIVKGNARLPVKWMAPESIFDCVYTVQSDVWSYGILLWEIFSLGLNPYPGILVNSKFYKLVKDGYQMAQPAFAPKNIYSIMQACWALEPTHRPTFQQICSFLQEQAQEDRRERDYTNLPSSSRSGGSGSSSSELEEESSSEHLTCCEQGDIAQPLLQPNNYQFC

[5] = target: Phosphatidylinositol 4-phosphate 5-kinase type-1 gamma (Homo sapiens) (UniProt O60331); test: Selectivity interaction (ProQinase) EUB0000171b PIP5K1C; conditions: at 1 µM
Chain of Phosphatidylinositol 4-phosphate 5-kinase type-1 gamma (Homo sapiens) (O60331 whole entry): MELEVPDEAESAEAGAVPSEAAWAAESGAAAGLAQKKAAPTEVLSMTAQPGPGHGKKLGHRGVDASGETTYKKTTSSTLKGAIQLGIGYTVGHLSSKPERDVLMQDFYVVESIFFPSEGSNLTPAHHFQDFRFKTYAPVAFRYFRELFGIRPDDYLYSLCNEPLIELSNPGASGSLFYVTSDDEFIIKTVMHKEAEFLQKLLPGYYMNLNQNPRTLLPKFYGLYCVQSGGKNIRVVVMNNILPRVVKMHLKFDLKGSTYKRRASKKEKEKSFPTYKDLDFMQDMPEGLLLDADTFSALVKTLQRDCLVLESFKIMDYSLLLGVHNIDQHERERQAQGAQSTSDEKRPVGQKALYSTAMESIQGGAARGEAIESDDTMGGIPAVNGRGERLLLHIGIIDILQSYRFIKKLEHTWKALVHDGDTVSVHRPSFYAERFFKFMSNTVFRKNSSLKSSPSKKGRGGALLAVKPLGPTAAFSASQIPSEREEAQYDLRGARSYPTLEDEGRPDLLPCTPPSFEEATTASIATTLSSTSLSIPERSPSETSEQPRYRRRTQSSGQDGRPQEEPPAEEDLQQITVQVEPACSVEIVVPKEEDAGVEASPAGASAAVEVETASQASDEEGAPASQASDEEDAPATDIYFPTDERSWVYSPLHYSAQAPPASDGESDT

[6] = target: Protein kinase C alpha type (Homo sapiens, UniProt P17252); test: Selectivity interaction (Kinase panel (Invitrogen)) EUB0000639a PRKCA; conditions: at 200 nM
[7] = target: Serine/threonine-protein kinase pim-3 (Homo sapiens) (UniProt Q86V86); conditions: at 10 µM
[8] = target: Mitogen-activated protein kinase 3 (Homo sapiens, UniProt P27361); test: Selectivity interaction (Ambit KINOMEscan and KiNATiv profiling in Jurkat cells) EUB0000090b MAPK3; format: cell-based; conditions: at 1 µM
Chain of Mitogen-activated protein kinase 3 (P27361 whole entry): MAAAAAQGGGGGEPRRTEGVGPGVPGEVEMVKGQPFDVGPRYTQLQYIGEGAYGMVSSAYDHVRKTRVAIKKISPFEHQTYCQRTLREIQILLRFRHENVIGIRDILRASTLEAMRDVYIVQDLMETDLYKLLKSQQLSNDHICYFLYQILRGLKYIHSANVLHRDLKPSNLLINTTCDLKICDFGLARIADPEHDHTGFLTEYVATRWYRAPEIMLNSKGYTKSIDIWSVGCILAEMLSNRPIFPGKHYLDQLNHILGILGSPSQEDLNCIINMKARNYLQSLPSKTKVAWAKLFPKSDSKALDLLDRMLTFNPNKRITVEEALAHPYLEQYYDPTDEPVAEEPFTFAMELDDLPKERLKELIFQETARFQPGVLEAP

[9] = target: T2, Serine/threonine-protein kinase TAO1 (Homo sapiens) (UniProt Q7L7X3); test: Selectivity interaction (Ambit KINOMEscan and KiNATiv profiling in Jurkat cells) EUB0000090b TAOK1; format: cell-based; conditions: at 1 µM
T2 sequence (whole entry): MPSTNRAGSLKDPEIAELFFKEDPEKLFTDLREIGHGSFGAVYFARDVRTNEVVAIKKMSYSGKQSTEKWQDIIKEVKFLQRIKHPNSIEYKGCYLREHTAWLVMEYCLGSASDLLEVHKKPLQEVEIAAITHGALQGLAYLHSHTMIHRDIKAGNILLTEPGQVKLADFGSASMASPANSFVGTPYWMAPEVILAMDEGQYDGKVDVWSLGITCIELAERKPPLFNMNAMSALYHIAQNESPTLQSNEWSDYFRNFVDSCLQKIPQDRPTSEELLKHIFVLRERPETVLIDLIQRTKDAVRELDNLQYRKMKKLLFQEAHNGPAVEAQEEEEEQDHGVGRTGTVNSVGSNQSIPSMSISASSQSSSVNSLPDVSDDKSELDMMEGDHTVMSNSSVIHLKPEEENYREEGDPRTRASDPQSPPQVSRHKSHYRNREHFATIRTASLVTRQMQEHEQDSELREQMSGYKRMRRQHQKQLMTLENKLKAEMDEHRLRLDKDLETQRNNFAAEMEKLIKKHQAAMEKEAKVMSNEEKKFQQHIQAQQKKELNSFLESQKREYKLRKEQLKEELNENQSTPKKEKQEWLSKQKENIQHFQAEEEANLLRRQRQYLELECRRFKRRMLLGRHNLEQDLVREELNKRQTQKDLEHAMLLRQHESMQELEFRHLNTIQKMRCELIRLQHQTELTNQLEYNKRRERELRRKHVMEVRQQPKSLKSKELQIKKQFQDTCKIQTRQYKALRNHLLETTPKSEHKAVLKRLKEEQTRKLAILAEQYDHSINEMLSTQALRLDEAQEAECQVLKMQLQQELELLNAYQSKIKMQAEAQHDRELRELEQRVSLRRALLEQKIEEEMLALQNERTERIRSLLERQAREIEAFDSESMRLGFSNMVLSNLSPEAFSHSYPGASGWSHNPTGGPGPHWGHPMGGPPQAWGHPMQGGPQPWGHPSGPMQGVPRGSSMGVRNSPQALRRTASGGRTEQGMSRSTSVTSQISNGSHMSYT

C=CC(=O)Nc1cc(-n2c(=O)ccc3cnc4ccc(-c5ccc(NS(C)(=O)=O)cc5)cc4c32)ccc1C
% of control ([1]; at 1 µM): 100%
% of control ([1]; at 10 µM): 62%

Cn1cc(-n2cnc3c(NCc4nc5cc(Cl)c(Cl)cc5[nH]4)nc(N4CCOCC4)nc32)cn1
% of control [2]: 3.1%
% of inhibition [3]: 0.691%

CC(=O)Nc1cccc(-n2c(=O)n(C3CC3)c(=O)c3c(Nc4ccc(I)cc4F)n(C)c(=O)c(C)c32)c1
% of control [4]: 128%

C=CC(=O)Nc1cccc(C(=O)Nc2ccc(Nc3cc(-c4[nH]c(SC)nc4C)ccn3)cc2)c1
% of control [5]: 107%

CC[C@@H]1[C@H](F)C(=O)N[C@@H]1COc1nccc2cc(C(N)=O)c(OC)cc12 [ZIMLOVISERTIB]
% of inhibition [6]: 6.64%

CCN(CC)CCCCNc1ncc2cc(-c3cc(OC)cc(OC)c3)c(NC(=O)NC(C)(C)C)nc2n1
% of control [7]: 100%

CN(C)C/C=C/C(=O)Nc1ccc(C(=O)N2CCCC(Nc3ncc(Cl)c(-c4c[nH]c5ccccc45)n3)C2)cc1 (stereo not given)
% of control [8]: 84%
% of control [9]: 93%
